Source: US20020052325A1, “Anticonvulsant derivatives useful in maintaining weight loss” (priority 1999, published 2002)
Read-outs that look alike come from different tables or passages of the source.

Tests used:
[1] = overweight individuals; cited from earlier work
[2] = Weight loss in patients treated with topiramate as adjunctive therapy in epilepsy; format: in vivo, human
Experimental: Further, carboxylic acids and aldehydes of the formulae RCOOH and RCHO may be reduced to compounds of the formula RCH2OH by standard reduction techniques, e.g. reaction with lithium aluminum hydride, sodium borohydride or borane-THF complex in an inert solvent such a diglyme, THF or toluene at a temperature of about 0° to 100° C., e.g. as described by H. O. House in “Modern Synthetic Reactions”, 2nd Ed., pages 45 to 144 (1972). In patients treated with topiramate as an adjunctive therapy in epilepsy (n=1319), mean weight loss of 4.6% of baseline weight was observed. The mean daily dosage of topiramate was 621.9 mg/day and the mean duration of dosing was 688.8 days. […] On topiramate treatment, there is gradual weight loss over time, with maintenance of the weight lost to 24 months of therapy; thus the mean percentage decrease in weight for all subjects (n=1319) was 4.6%, with similar weight loss maintained at one year (4.9%) and two years (4.5%) of treatment. This pattern is also seen in those patients with weight in excess of 100 kg at baseline (n=127), who lost a mean of 8.4% weight overall, with loss of 9.4% at one year and 9.9% at two years.

seizures [3] = details: several rodent models of epilepsy; cited from earlier work
[4] = tested on: simple and complex partial seizures and secondarily generalized seizures; details: adjunctive therapy or monotherapy, human epilepsy; cited from earlier work
seizures [5] = details: animal model of kindled epilepsy; cited from earlier work

## CC1(C)O[C@@H]2[C@@H](CO[C@@]3(COS(N)(=O)=O)OC(C)(C)O[C@@H]23)O1 [topiramate, 2,3:4,5-bis-O-(1-methylethylidene)-β-D-fructopyranose sulfamate]
[1]
  weight reduction: effectively reduce the weight
[2]; all subjects (n=1319), at one year of treatment
  mean percentage decrease in weight: 4.9%
[2]; all subjects (n=1319), at two years of treatment
  mean percentage decrease in weight: 4.5%
[2]; all subjects (n=1319), overall, mean daily dosage 621.9 mg/day, mean duration of dosing 688.8 days
  mean weight loss of baseline weight: 4.6%
[2]; subjects >100 kg at baseline (n=127), at one year
  mean decrease in weight: 9.4%
[2]; subjects >100 kg at baseline (n=127), at two years
  mean decrease in weight: 9.9%
[2]; subset of subjects weighing >100 kg at baseline (n=127), overall, mean daily dose 873.5 mg/day, mean duration of dosing 881.8 days
  mean decrease in weight: 8.4%
Seizures [3]
  seizure block: effectively block seizures
[4]
  efficacy in treating seizures: effective as adjunctive therapy or as monotherapy
Seizures [5]
  seizure block: effectively block seizures
